Experimental data as given in patent publication EP0194794A2, “Saccharide digestion inhibiting composition” (Takeda Chemical Industries, Ltd., priority 1985, dated 1986).
Marks after values point to notes of the source that are not given here.

What was measured:
[1] = Property of feces in rats fed test ration, single organism (Reference Example 1); format: in vivo, male Jcl:SD rats; conditions: 36 to 48 hours
Method: One gram of the mixture prepared in Example 1 and one gram of cells of lactic acid producing bacteria of a kind different from the bacteria used in Example 1 were mixed with 99 g of commercial powder feed (CE-2) to give a test ration. This ration was given to male Jcl:SD rats aged 7 weeks (6 animals per group) and the property of feces excreted after 36 to 48 hours was examined. Control animals received a mixture of 10 mg of AO-128 and 100 g of 'powder feed.

[2] = Property of feces in rats fed test ration, 2 or more bacteria (Reference Example 2); format: in vivo, Jcl:SD rats; conditions: 36 to 48 hours
Method: Using 2 or more different bacteria, test rations were prepared by the same procedure as Reference Example 1. However, the amount of potato starch was reduced to adjust for the volume increase due to the cells to provide a composition containing cells of AO-128 and the composition was mixed with feed. The resulting ration was given to 7-week-old Jcl:SD rats (5 animals per group) and the property of feces after 36 to 48 hours was observed. Control rats received a mixture of 10 mg of AO-128 and 100 g of powder feed.

[3] = Influence on dietary hyperglycemia and hyperinsulinemia (Reference Example 3); format: in vivo, male Jcl:SD rats; conditions: mean ± SD, n=6
Method: The rations prepared in the same manner as Reference Example 1 were given to 8-week-old male Jcl:SD rats (6 individuals per group) which had not been fed for 24 hours to investigate how the administration of lactic acid producing bacteria would influence the inhibitory effect of AO-128 on the hyperglycemia and hyperinsuleinemia following a diet intake.
Blood samples were collected from the tail vein immediately before feeding and 30, 60 and 120 minutes after feeding and the plasma glucose and insulin levels were determined.

[4] = 28-day feeding of rats with Zucker obesity (Reference Example 4); format: in vivo, male rats with Zucker obesity; conditions: ration fed for 28 days
Method: In the analysis for body fat, the liver, the adipose tissue of the epididymis, the digestive tract and its contents were removed and the remainder was used as a sample. The rations containing the bacterial cells were prepared every other day and fed.

Acute toxicity study = format: in vivo, rats; conditions: oral administration, 10 g/kg body weight
Text: When this was mixed with 10^11 cells of any of the 3 different lactic acid producing bacteria used in the present invention and the mixture was orally administered at the same time as AO-128 (10 g/kg body weight), no influence was observed.

OCC(CO)N[C@H]1C[C@](O)(CO)[C@@H](O)[C@H](O)[C@H]1O [AO-128, N-(1,3-Dihydroxy-2-propyl)valiolamine]
Property of feces ± ([1]; number of rats (6 per group) with fecal masses, a diffusion of water noted on filter paper): 0
Property of feces - ([1]; number of rats (6 per group) with fecal masses, no diffusion of water on filter paper): 0
Property of feces + ([1]; number of rats (6 per group) with feces unformed (watery stool)): 6
Property of feces ± ([2]; number of rats (5 per group) with fecal masses, diffusion of water on filter paper): 2
Property of feces - ([2]; number of rats (5 per group) with fecal masses, no diffusion of water on filter paper): 0
Property of feces + ([2]; number of rats (5 per group) with feces unformed (watery stool)): 3
Plasma glucose level 30 min. ([3]; 30 minutes after feeding): 141± 8^a mg/dl
Plasma glucose level 60 min. ([3]; 60 minutes after feeding): 154±11^a mg/dl
Plasma glucose level 120 min. ([3]; 120 minutes after feeding): 152±11^a mg/dl
Plasma glucose level 0 min. ([3]; immediately before feeding, rats not fed for 24 hours): 101 ± 10 mg/dL
diarrhea ([4]; animals with diarrhea / animals in group): 6/6
body fat ([4]; carcass without liver, epididymal adipose tissue, digestive tract, n=6): 19.8±5.4^b %
body weight gain ([4]; mean ± SD, n=6): 132±28^a g/28day
food consumption ([4]; mean ± SD, n=6): 602±56^a g/28day
food conversion ([4]; mean ± SD, n=6): 21.9±3.6^b %
death in acute toxicity study (Acute toxicity study): caused no death
